Experimental findings from ChEMBL document CHEMBL5230103, “Hydroxamic acid hybrids as the potential anticancer agents: An Overview” (Eur J Med Chem, 2020) are described below.

In assay [1] the target is Histone deacetylase 3 (Homo sapiens, UniProt O15379). As to the kind of experiment: Inhibition of HDAC3 (unknown origin).
The subject of assay [2] is U-937. As to the kind of experiment: Antiproliferative activity against human U-937 cells assessed as inhibition of cell growth by MTT assay. Type of assay: functional, cell-based. (In general: Formazan colour is commonly taken as a measure of viable cells.)
Assay [3] concerns the target T1, Protein deacetylase HDAC6 (Homo sapiens, UniProt Q9UBN7).
T1 sequence (Q9UBN7 whole entry): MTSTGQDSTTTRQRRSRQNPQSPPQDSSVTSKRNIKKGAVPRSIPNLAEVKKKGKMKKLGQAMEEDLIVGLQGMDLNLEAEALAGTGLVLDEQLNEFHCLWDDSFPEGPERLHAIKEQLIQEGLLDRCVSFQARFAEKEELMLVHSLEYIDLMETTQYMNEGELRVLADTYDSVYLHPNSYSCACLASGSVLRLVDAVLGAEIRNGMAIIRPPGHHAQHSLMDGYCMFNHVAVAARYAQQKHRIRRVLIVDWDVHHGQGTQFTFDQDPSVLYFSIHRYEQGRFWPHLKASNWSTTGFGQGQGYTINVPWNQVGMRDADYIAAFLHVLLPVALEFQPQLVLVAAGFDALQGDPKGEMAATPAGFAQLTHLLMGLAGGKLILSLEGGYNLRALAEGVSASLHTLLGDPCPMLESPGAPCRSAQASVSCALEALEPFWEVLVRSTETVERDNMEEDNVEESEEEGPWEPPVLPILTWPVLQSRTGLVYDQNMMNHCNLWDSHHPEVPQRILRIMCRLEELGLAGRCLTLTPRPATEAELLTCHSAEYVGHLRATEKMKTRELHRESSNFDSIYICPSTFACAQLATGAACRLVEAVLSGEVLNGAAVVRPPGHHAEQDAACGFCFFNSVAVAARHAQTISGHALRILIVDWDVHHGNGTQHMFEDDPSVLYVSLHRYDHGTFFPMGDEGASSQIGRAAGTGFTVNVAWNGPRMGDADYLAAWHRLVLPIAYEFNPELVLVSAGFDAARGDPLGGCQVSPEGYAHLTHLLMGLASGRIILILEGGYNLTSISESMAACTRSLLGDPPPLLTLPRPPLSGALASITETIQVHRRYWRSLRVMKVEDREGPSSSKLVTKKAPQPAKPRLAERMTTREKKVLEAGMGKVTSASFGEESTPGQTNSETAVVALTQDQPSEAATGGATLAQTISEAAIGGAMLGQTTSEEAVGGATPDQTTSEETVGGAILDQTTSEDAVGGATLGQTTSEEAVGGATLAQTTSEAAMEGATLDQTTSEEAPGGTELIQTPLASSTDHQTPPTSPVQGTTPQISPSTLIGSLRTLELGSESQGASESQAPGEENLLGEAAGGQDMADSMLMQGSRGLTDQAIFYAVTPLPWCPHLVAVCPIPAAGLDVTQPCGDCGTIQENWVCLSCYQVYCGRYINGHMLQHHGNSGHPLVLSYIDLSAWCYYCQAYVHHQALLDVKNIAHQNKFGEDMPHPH
The assay is described as follows: Inhibition of HDAC6 (unknown origin).

Assay [4] deals with U-266. As to the kind of experiment: Antiproliferative activity against human U-266 cells assessed as inhibition of cell growth by MTT assay. Type of assay: functional, cell-based.
For assay [5], the target named is Histone deacetylase 2 (Homo sapiens, UniProt Q92769). As to the kind of experiment: Inhibition of HDAC2 (unknown origin).
Chain of Histone deacetylase 2 (Q92769 whole entry): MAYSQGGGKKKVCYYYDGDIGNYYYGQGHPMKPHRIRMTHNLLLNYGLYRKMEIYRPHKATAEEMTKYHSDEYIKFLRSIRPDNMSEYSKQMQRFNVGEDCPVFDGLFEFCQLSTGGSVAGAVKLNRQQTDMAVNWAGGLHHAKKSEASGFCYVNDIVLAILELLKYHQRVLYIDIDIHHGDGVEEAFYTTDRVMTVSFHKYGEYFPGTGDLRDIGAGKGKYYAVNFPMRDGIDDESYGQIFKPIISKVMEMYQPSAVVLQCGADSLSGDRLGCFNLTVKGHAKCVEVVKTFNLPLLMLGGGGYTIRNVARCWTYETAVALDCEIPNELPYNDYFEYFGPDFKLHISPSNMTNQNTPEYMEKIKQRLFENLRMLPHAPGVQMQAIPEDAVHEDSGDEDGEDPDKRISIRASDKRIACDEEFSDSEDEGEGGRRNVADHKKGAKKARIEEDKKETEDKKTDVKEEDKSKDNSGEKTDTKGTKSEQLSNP
In assay [6] the test system is HL-60. As to the kind of experiment: Antiproliferative activity against human HL-60 cells assessed as inhibition of cell growth by MTT assay. It counts as functional, cell-based.
Assay [7] relates to MCF7. The assay is described as follows: Antiproliferative activity against human MCF7 cells assessed as inhibition of cell growth by MTT assay. It counts as functional, cell-based.
The subject of assay [8] is NCI-H929. As to the kind of experiment: Antiproliferative activity against human NCI-H929 cells assessed as inhibition of cell growth by MTT assay. It counts as functional, cell-based.
In assay [9] the target is Histone deacetylase 1 (Homo sapiens, UniProt Q13547). The assay is described as follows: Inhibition of HDAC1 (unknown origin).
Chain of Histone deacetylase 1 (Q13547 whole entry): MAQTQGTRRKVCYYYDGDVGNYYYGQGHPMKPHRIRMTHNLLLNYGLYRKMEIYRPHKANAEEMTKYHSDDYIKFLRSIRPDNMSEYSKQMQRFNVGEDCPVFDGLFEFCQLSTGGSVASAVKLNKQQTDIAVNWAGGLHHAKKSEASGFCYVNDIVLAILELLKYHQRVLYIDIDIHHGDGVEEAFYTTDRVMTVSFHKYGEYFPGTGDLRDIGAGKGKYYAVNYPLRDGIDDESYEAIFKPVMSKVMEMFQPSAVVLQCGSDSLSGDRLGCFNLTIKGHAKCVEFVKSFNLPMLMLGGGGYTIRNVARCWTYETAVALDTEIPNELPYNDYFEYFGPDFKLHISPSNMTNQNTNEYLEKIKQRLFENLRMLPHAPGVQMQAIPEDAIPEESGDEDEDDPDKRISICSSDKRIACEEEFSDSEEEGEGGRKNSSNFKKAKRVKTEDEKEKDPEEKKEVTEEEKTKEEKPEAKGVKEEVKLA
Assay [10] concerns the target Histone deacetylase 8 (Homo sapiens, UniProt Q9BY41). The assay is described as follows: Inhibition of HDAC8 (unknown origin).
Assay [11] deals with SH-SY5Y. As to the kind of experiment: Antiproliferative activity against human SH-SY5Y cells assessed as inhibition of cell growth by MTT assay. It counts as functional, cell-based.
Assay [12] deals with HT-29. The assay is described as follows: Antitumor activity against human HT-29 cells xenografted in mouse assessed as tumor growth inhibition at 100 mg/kg, po relative to control. It counts as functional. The following applies: read-out: TGI. In general terms: In xenograft studies the graft and the host belong to different species.
For assay [13], the system named is HT-29. The assay is described as follows: Antitumor activity against human HT-29 cells xenografted in mouse assessed as tumor growth inhibition at 50 mg/kg, po relative to control. Type of assay: functional. The following applies: read-out: TGI.
For assay [14], the system named is HT-29. The assay is described as follows: Antitumor activity against human HT-29 cells xenografted in mouse assessed as tumor growth inhibition at 25 mg/kg, po relative to control. It counts as functional. The following applies: read-out: TGI.
Assay [15] deals with PC-3. The assay is described as follows: Cytotoxicity against human PC-3 cells assessed as inhibition of cell growth by SRB assay. Type of assay: functional, cell-based. In general terms: In SRB staining, fixed cells bind dye roughly in proportion to their protein.
Assay [16] concerns A549. The assay is described as follows: Cytotoxicity against human A549 cells assessed as inhibition of cell growth by SRB assay. Type of assay: functional.
In assay [17] the target is Histone deacetylase (Homo sapiens) (UniProt Q13547+O15379+Q9UBN7+Q92769+Q9UQL6+Q8WUI4+Q9BY41+Q96DB2+P56524+Q9UKV0+Q969S8). The assay is described as follows: Potency index, ratio of vorinostat IC50 to test compound IC50 for inhibition of HDAC (unknown origin). Type of assay: protein assay.
Assay [18] deals with Histone deacetylase. As to the kind of experiment: Inhibition of HDAC (unknown origin). Type of assay: protein assay, Homo sapiens.
For assay [19], the system named is Hep 3B2. The assay is described as follows: Cytotoxicity against human Hep3B cells assessed as inhibition of cell growth by MTT assay. Type of assay: functional.
The test system of assay [20] is HCT-116. The assay is described as follows: Cytotoxicity against human HCT-116 cells assessed as inhibition of cell growth by SRB assay. Type of assay: functional, cell-based.
Assay [21] deals with Histone deacetylase 8 (Homo sapiens) (UniProt Q9BY41). As to the kind of experiment: Inhibition of HDAC8 (unknown origin) at 25 nM relative to control.
Chain of Histone deacetylase 8 (Homo sapiens) (Q9BY41 whole entry): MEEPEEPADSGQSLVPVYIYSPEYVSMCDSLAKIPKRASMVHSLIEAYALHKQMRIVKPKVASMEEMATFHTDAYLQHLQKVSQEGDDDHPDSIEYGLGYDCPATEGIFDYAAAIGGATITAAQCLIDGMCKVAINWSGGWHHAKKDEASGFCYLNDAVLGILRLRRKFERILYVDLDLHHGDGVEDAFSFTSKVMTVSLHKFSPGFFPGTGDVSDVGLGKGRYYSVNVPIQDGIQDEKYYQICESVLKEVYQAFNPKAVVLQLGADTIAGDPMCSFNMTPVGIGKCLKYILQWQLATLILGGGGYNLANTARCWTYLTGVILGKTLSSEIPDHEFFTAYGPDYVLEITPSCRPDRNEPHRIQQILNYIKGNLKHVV
Assay [22] concerns Jurkat E6.1. As to the kind of experiment: Cytotoxicity against human Jurkat E6.1 cells assessed as inhibition of cell growth by MTT assay. Type of assay: functional, cell-based.
The nature of assay [23]: Cytotoxicity against human HuT 102 cells assessed as inhibition of cell growth by MTT assay. It counts as functional, cell-based.
Assay [24] relates to HCT-116. The assay is described as follows: Cytotoxicity against human HCT-116 cells assessed as inhibition of cell growth measured after 24 hrs by MTT assay. Type of assay: functional, cell-based. The following applies: HCT-116, 24 h.
Assay [25] relates to MCF7. The assay is described as follows: Cytotoxicity against human MCF7 cells assessed as inhibition of cell growth measured after 24 hrs by MTT assay. It counts as functional, cell-based. The following applies: MCF7, 24 h.
Assay [26] concerns Ehrlich. The assay is described as follows: Antitumor activity against mouse EAC cells implanted in mouse assessed as survival rate at 125 mg/kg, ip administered for 10 days. Type of assay: functional. The following applies: 240 h, time 10 day.
For assay [27], the system named is MDA-MB-231. The assay is described as follows: Cytotoxicity against human MDA-MB-231 cells assessed as inhibition of cell growth measured after 24 hrs by MTT assay. It counts as functional, cell-based. The following applies: MDA-MB-231, 24 h.

Chain of Histone deacetylase 8 (Q9BY41 whole entry): as above
Chain of Histone deacetylase 3 (O15379 whole entry): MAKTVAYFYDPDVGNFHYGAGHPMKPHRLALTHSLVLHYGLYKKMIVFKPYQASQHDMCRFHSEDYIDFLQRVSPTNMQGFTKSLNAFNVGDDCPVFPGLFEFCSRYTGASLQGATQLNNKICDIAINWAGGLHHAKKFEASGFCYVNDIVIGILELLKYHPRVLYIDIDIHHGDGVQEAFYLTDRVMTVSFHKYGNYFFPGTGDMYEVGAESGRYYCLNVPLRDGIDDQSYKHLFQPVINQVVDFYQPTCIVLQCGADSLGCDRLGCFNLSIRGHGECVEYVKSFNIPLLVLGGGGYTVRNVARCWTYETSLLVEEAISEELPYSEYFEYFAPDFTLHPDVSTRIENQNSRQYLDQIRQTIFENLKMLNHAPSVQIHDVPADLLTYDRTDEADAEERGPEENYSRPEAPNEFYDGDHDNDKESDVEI

A word on the IC50: it is the concentration that gives 50% inhibition. With `O=C(NO)c1cn(C2CCN(C(=O)Cc3ccc4ccccc4c3)CC2)nn1`, the IC50 in assay [1] is 1 µM; in [2] it was 1.2 µM; in assay [3] it was 1 µM; in assay [4] it was 1.2 µM; in assay [5] it was 1 µM; in assay [6], 1.2 µM. Besides, the IC50 came out at 1.2 µM in assay [7]; 1.2 µM in [8]; 1 µM in [9]; 1 µM in assay [10]; 1.2 µM in [11].
Turning to `C[C@H](NC(=O)c1nc(-c2ncc(-c3ccccc3)s2)sc1C1CC1)c1ccc(C(=O)NO)cc1`, the inhibition in vivo at 100 mg/kg in assay [12] amounted to 62.5%. Further, in assay [13], the inhibition in vivo at 50 mg/kg was 40.7%. The inhibition in vivo at 25 mg/kg in assay [14] is 39.4%.
The term GI50 denotes the concentration at which growth is held to half of that of the control. `Cc1c(CCNS(=O)(=O)c2ccc(/C=C/C=C/C(=O)NO)cc2)c2ccccc2n1C`: the GI50 in [15], in assay [16], in [19] and in assay [20] was 0.02 µM in each case. Moreover, in [17], the Ratio IC50 was 35. The compound further had an IC50 in assay [18] of 0.0034 µM.
By inhibition is commonly meant the percentage by which the read-out fell short of the control. Read a low inhibition as a response near the control. With `Nc1ccnc(NC(=O)[C@@H](N)CCCCC(=O)NO)n1`, in assay [21], the inhibition turned out to be 75%. The IC50 in assay [22] amounted to 20 µM.
For the compound `CCn1c(C)c(CCNS(=O)(=O)c2ccc(/C=C/C=C/C(=O)NO)cc2)c2ccccc21`, the GI50 in [15], in assay [16], in assay [19] and in [20] was 0.02 µM in each case. For the same compound, the Ratio IC50 in assay [17] turned out to be 35. The same compound returned an IC50 in [18] of 0.0033 µM.
For `O=C(/C=C/c1ccc(S(=O)(=O)Nc2ccccc2C(F)(F)F)cc1)NO`, the IC50 in [23] and in assay [6] was 0.77 µM each time.
In the case of `Nn1c(SCCC(=O)NO)nnc1-c1cccnc1`, the 50% inhibitory concentration (IC50) in [24], in assay [25] and in assay [27] was 10.4 µM each time. For the same compound, the survival at 125 mg/kg in assay [26] came to 205%.
